Several values for one entry are separate records, joined by “and”; a condition that tells them apart may be missing. Equal entries are not always repeated. Where two headings read alike, the source gives them in different places.
Key:
Assay type in all cases: in vivo, mouse
FGF21 = experiment: Immunoblotting of plasma and liver FGF21
[1] = Tissue distribution assay; details: for concentration at 8 h / concentration at 4 h / concentration at 2 h: male, C57/BL6, mouse, po, 20 mg/kg
Experimental: Male C57/BL6 mice (18–20 g, n = 3 in each group) were randomly sorted into treatment groups. Being fasted for 12-h, mice were treated with oral gavage of the compound APC (20 mg/kg, in DMSO/0.5% HMPC, 5/95, v/v). After 2, 4, and 8-h of administration, the animals were sacrificed, respectively, the indicated tissues, including plasma, liver, kidney, muscle, brain, spleen, pancreas, white and brown fat, were collected and preserved at −80 °C. The APC content in samples was analyzed with a liquid chromatography-mass spectrometry/mass spectrometry (LC–MS/MS) system and normalized by protein content.

[2] = Histological analysis of liver and adipose tissue; details: DIO and db/db mice, 20 mg/kg, 5 weeks
Experimental: Fig. 5 APC improves hyperlipidemia of obese mice. DIO mice were continuously i.p. injected with control vehicle or APC with indicated doses (APC, 0, 10, and 20 mg/kg) or vehicle (Ctrl) one time daily for 5 weeks (n = 5–9). a Body-weight curves of these mice (left). Area under curve (AUC) analysis of curves is shown as a scatter chart at the right. […] Data are represented as mean ± SEM. *P < 0.05; **P < 0.01; P values were determined by one-way ANOVA followed Dunnett’s multiple comparisons test. The triglyceride (TG) contents in the serum (c) and liver (d) of these mice. The contents of (e) total cholesterol (TC), LDL cholesterol (LDL-C), and HDL cholesterol (HDL-C), (f) VLDL-C, and (g) nonesterified fatty acid (NEFA) in the serum of these mice. h The contents of hepatic NEFA and (i) glycerol in these mice, which were normalized by hepatic protein levels as determined by BCA assay. Data are represented as mean ± SEM (n = 5–6). *P < 0.05; **P < 0.01; P values were determined by one-way ANOVA followed Dunnett’s multiple comparisons test. j Histological analysis of liver and epididymis fat (WAT) from DIO mice treated with APC (20 mg/kg) or vehicle for 5 weeks. Tissues were stained with hematoxylin and eosin. Scale bars represent 100 μm. […]

CC(C)=CCc1cc(C=CC(=O)O)cc(CC=C(C)C)c1O [APC, 3,5-diprenyl-4-hydroxycinnamic acid]
liver FGF21 in WT, group mean (Mean 2) (FGF21; Supp. Fig.10 f down, WT mice, n=3, VEH mean 1.024): 2.405
Bands density of FGF21 in the liver (FGF21; Supp. Fig.10 f down, WT mice, oral, individual replicates, Veh about 1.02): 2.277 and 2.103 and 2.8341
Bands density, plasma FGF21 in WT (FGF21; Supp. Fig.10 f up, WT mice, individual replicates, VEH about 1.08): 1.716 and 1.667 and 1.521
Bands density, plasma FGF21 in WT, group mean (Mean 2) (FGF21; Supp. Fig.10 f up, WT mice, n=3, VEH mean 1.077): 1.634
plasma and liver FGF21 (FGF21; wild-type control group, oral 20 mg/kg, 3 weeks): increased
content of APC in the liver compared with other tissues ([1]; 2–8 h after one oral dose 20 mg/kg): highest
APC content in tissue ([1]; Brain, 2H, oral, individual mice, * below the detection line, 2 h after oral dose): 0* ng/g (2×) and 16.430 ng/g
APC content in tissue ([1]; Brain, 4H, oral, individual mice, * below the detection line): 0* ng/g
APC content in tissue ([1]; Brain, 4H, oral, individual mice, * below the detection line, 4 h after oral dose): 1.550 ng/g and 4.810 ng/g
APC content in tissue ([1]; Brain, 8H, oral, individual mice, * below the detection line): 0* ng/g
APC content in tissue ([1]; BrownFat, 2H, oral, individual mice, 2 h after oral dose): 9.800 ng/g and 11.690 ng/g
APC content in tissue ([1]; BrownFat, 4H, oral, individual mice): 9.800 ng/g
APC content in tissue ([1]; BrownFat, 4H, oral, individual mice, 4 h after oral dose): 14.240 ng/g and 144.870 ng/g
APC content in tissue ([1]; BrownFat, 8H, oral, individual mice): 1.740 ng/g and 5.480 ng/g and 3.880 ng/g
APC content in tissue ([1]; Kidney, 2H, oral, individual mice, 2 h after oral dose): 23.340 ng/g and 9.890 ng/g and 11.250 ng/g
APC content in tissue ([1]; Kidney, 4H, oral, individual mice): 9.550 ng/g
APC content in tissue ([1]; Kidney, 4H, oral, individual mice, 4 h after oral dose): 19.740 ng/g and 19.810 ng/g
APC content in tissue ([1]; Kidney, 8H, oral, individual mice): 2.260 ng/g and 4.200 ng/g and 7.700 ng/g
APC content in tissue ([1]; Live (liver), 2H, oral, individual mice, 2 h after oral dose): 703.950 ng/g and 577.440 ng/g
APC content in tissue ([1]; Live (liver), 4H, oral, individual mice): 815.560 ng/g
APC content in tissue ([1]; Live (liver), 4H, oral, individual mice, 4 h after oral dose): 1205.720 ng/g
APC content in tissue ([1]; Live (liver), 8H, oral, individual mice): 287.680 ng/g and 320.280 ng/g
APC content in tissue ([1]; Muscle, 2H, oral, individual mice, 2 h after oral dose): 2.680 ng/g and 4.690 ng/g
APC content in tissue ([1]; Muscle, 4H, oral, individual mice): 13.390 ng/g
APC content in tissue ([1]; Muscle, 4H, oral, individual mice, 4 h after oral dose): 7.190 ng/g
APC content in tissue ([1]; Muscle, 8H, oral, individual mice): 0.000 ng/g and 1.740 ng/g and 1.650 ng/g
APC content in tissue ([1]; Pancreas, 2H, oral, individual mice, 2 h after oral dose): 18.050 ng/g and 11.070 ng/g and 26.740 ng/g
APC content in tissue ([1]; Pancreas, 4H, oral, individual mice): 33.580 ng/g
APC content in tissue ([1]; Pancreas, 4H, oral, individual mice, 4 h after oral dose): 20.040 ng/g and 8.730 ng/g
APC content in tissue ([1]; Pancreas, 8H, oral, individual mice, * below the detection line): 10.890 ng/g and 0* ng/g (2×)
APC content in tissue ([1]; Spleen, 2H, oral, individual mice, 2 h after oral dose): 10.360 ng/g and 16.550 ng/g
APC content in tissue ([1]; Spleen, 4H, oral, individual mice): 12.280 ng/g
APC content in tissue ([1]; Spleen, 4H, oral, individual mice, 4 h after oral dose): 22.450 ng/g
APC content in tissue ([1]; Spleen, 8H, oral, individual mice): 0.000 ng/g and 12.270 ng/g and 10.910 ng/g
APC content in tissue ([1]; WhiteFat, 2H, oral, individual mice, 2 h after oral dose): 10.520 ng/g and 12.290 ng/g
APC content in tissue ([1]; WhiteFat, 4H, oral, individual mice): 42.520 ng/g
APC content in tissue ([1]; WhiteFat, 4H, oral, individual mice, 4 h after oral dose): 32.220 ng/g
APC content in tissue ([1]; WhiteFat, 8H, oral, individual mice): 3.140 ng/g and 8.490 ng/g and 14.550 ng/g
APC-PO-heart-plasma ([1]; heart plasma, PO, 2H, individual mice): 28.92 ng/mL and 27.48 ng/mL
APC-PO-heart-plasma ([1]; heart plasma, PO, 4H, individual mice): 64.03 ng/mL and 39.57 ng/mL
APC-PO-heart-plasma ([1]; heart plasma, PO, 8H, individual mice): 7.56 ng/mL and 19.01 ng/mL and 14.9 ng/mL
concentration at 8 h ([1]; brain, Brain, 8H, oral, individual mice, * below the detection line, read-out: APC content in tissue): 0 ng/g
concentration at 4 h ([1]; brain, brain, 4 h after oral, Figure 5l, Y, read-out: average APC content 4 h after oral): 3.18 ng/g
concentration at 4 h ([1]; brain, brain, 4 h after oral, Figure 5l, size of bubble, read-out: average APC content 4 h after oral): 3.18 ng/g
concentration at 4 h ([1]; brown fat (BF), BF, 4 h after oral, Figure 5l, size of bubble, read-out: average APC content 4 h after oral): 56.3 ng/g
concentration at 4 h ([1]; brown fat, BF, 4 h after oral, Figure 5l, Y, read-out: average APC content 4 h after oral): 56.3 ng/g
concentration at 2 h ([1]; brown fat, BrownFat, 2H, oral, individual mice, read-out: APC content in tissue): 11.1 ng/g
concentration at 2 h ([1]; heart plasma, heart plasma, PO, 2H, individual mice, read-out: APC-PO-heart-plasma): 32.1 ng/mL
concentration at 4 h ([1]; heart plasma, heart plasma, PO, 4H, average, read-out: avarage APC, APC-PO-heart-plasma): 48.5 ng/mL
concentration at 4 h ([1]; heart plasma, heart plasma, PO, 4H, individual mice, read-out: APC-PO-heart-plasma): 41.8 ng/mL
concentration at 4 h ([1]; kidney, kidney, 4 h after oral, Figure 5l, Y, read-out: average APC content 4 h after oral): 16.4 ng/g
concentration at 4 h ([1]; kidney, kidney, 4 h after oral, Figure 5l, size of bubble, read-out: average APC content 4 h after oral): 16.4 ng/g
concentration at 4 h ([1]; liver, LIVER, 4 h after oral, Figure 5l, Y, read-out: average APC content 4 h after oral): 917 ng/g
concentration at 4 h ([1]; liver, LIVER, 4 h after oral, Figure 5l, size of bubble, read-out: average APC content 4 h after oral): 917 ng/g
concentration at 2 h ([1]; liver, Live (liver), 2H, oral, individual mice, read-out: APC content in tissue): 756 ng/g
concentration at 4 h ([1]; liver, Live (liver), 4H, oral, individual mice, read-out: APC content in tissue): 729 ng/g
concentration at 8 h ([1]; liver, Live (liver), 8H, oral, individual mice, read-out: APC content in tissue): 178 ng/g
concentration at 2 h ([1]; liver, avarage APC, Live (liver), 2H, oral, average, heading: avarage APC): 679 ng/g
concentration at 4 h ([1]; liver, avarage APC, Live (liver), 4H, oral, average, heading: avarage APC): 917 ng/g
concentration at 2 h ([1]; muscle, Muscle, 2H, oral, individual mice, read-out: APC content in tissue): 3.77 ng/g
concentration at 4 h ([1]; muscle, Muscle, 4H, oral, individual mice, read-out: APC content in tissue): 6.73 ng/g
concentration at 4 h ([1]; muscle, Muscle, 4 h after oral, Figure 5l, Y, read-out: average APC content 4 h after oral): 9.1 ng/g
concentration at 4 h ([1]; muscle, Muscle, 4 h after oral, Figure 5l, size of bubble, read-out: average APC content 4 h after oral): 9.1 ng/g
concentration at 4 h ([1]; pancreas, panc, 4 h after oral, Figure 5l, Y, read-out: average APC content 4 h after oral): 20.8 ng/g
concentration at 4 h ([1]; pancreas, panc, 4 h after oral, Figure 5l, size of bubble, read-out: average APC content 4 h after oral): 21.2 ng/g
concentration at 4 h ([1]; portal vein plasma, po-portal vein plasma, 4 h after oral, Figure 5l, Y, read-out: average APC content 4 h after oral): 48.5 ng/g
concentration at 4 h ([1]; portal vein plasma, po-portal vein plasma, 4 h after oral, Figure 5l, size of bubble, read-out: average APC content 4 h after oral): 48.5 ng/g
concentration at 2 h ([1]; spleen, Spleen, 2H, oral, individual mice, read-out: APC content in tissue): 15.6 ng/g
concentration at 4 h ([1]; spleen, Spleen, 4H, oral, individual mice, read-out: APC content in tissue): 13.8 ng/g
concentration at 4 h ([1]; spleen, spleen, 4 h after oral, Figure 5l, Y, read-out: average APC content 4 h after oral): 16.2 ng/g
concentration at 4 h ([1]; spleen, spleen, 4 h after oral, Figure 5l, size of bubble, read-out: average APC content 4 h after oral): 16.2 ng/g
concentration at 4 h ([1]; white fat, WF, 4 h after oral, Figure 5l, Y, read-out: average APC content 4 h after oral): 32.7 ng/g
concentration at 4 h ([1]; white fat, WF, 4 h after oral, Figure 5l, size of bubble, read-out: average APC content 4 h after oral): 32.7 ng/g
concentration at 2 h ([1]; white fat, WhiteFat, 2H, oral, individual mice, read-out: APC content in tissue): 18.5 ng/g
concentration at 4 h ([1]; white fat, WhiteFat, 4H, oral, individual mice, read-out: APC content in tissue): 23.2 ng/g
sizes of lipid droplets in liver and adipose tissues [2]: remarkably reduced
